One data set deals with DLD-1 BRCA2(−/−) cells. The data set is described as follows: Cell growth inhibition assay (CellTiter-Glo), DLD-1 BRCA2(−/−). The format is cell-based. The note with it: Homo sapiens, DLD-1, 168 h; cell viability, CellTiter Glo 2.0, 7 days. On the procedure: The objective of this study is to evaluate the effect of compound disclosed herein on cell proliferation through the cell viability assay in DLD-1 BRCA2(−/−) and parental isogenic pair and MDA-MB-436 (mutated BRCA1) cell lines.
DLD-1 BRCA2(−/−) and parental isogenic pair were cultured in RPMI 1640 supplemented with 10% fetal bovine serum (FBS), and MDA-MB-436 cells were cultured in DMEM supplemented with 10% FBS. Both are culture at 37° C. with 5% CO2. […] The cells were seeded into the plate in the density of 50 cells/well (DLD-1 parental), 200 cells/well (DLD-1 BRCA2−/−), or 500 cells/well (MDA-MB-436). After a short spun, the cells were cultured in a well moisturized incubator at 37° C. with 5% CO2 for 7 days without disturbance. The cell viability was measured by CellTiter Glo 2.0 assay kit (Promega, G9243), and growth inhibition rate was calculated and plotted against final compound concentration, and the data were fitted in Xfit to generate IC50.

Data set [1] has as its system MDA-MB-436 (mutated BRCA1) cells. Kind of data set: Cell growth inhibition assay (CellTiter-Glo), MDA-MB-436. The format is cell-based. Particulars: Homo sapiens, MDA-MB-436, 168 h; cell viability, CellTiter Glo 2.0, 7 days. The text has this: The objective of this study is to evaluate the effect of compound disclosed herein on cell proliferation through the cell viability assay in DLD-1 BRCA2(−/−) and parental isogenic pair and MDA-MB-436 (mutated BRCA1) cell lines. The CellTiter-Glo (CTG) based cell viability assay is designed to determine the number of viable cells in the culture because of compound effect, by quantifying ATP, which indicates the presence of metabolically active cells.
DLD-1 BRCA2(−/−) and parental isogenic pair were cultured in RPMI 1640 supplemented with 10% fetal bovine serum (FBS), and MDA-MB-436 cells were cultured in DMEM supplemented with 10% FBS. Both are culture at 37° C. with 5% CO2. Invention compounds were distributed to the 384 well plate (Corning, 3764) using Echo acoustic liquid handler to form a 1:3 serially diluted final concentration with top dose of 10 or 30 μM. The cells were seeded into the plate in the density of 50 cells/well (DLD-1 parental), 200 cells/well (DLD-1 BRCA2−/−), or 500 cells/well (MDA-MB-436). After a short spun, the cells were cultured in a well moisturized incubator at 37° C. with 5% CO2 for 7 days without disturbance. The cell viability was measured by CellTiter Glo 2.0 assay kit (Promega, G9243), and growth inhibition rate was calculated and plotted against final compound concentration, and the data were fitted in Xfit to generate IC50.
In general terms: In ATP-based viability assays light output follows the ATP content of the culture.

A further data set concerns the target MDR1 (Homo sapiens (Human), UniProt P08183). The data set is described as follows: In vitro human transporter efflux, MDCKII cells expressing MDR1. The data set is classed as in vitro ADME. Particulars: for Papp A→B at 2 h, 10 μM: MDCK-MDR1, pH 7.4, apical-to-basolateral, pH7.4, read-out: MDCK-MDR1 Papp AB; for Papp A→B at 2 h, 10 μM / Papp B→A at 2 h, 10 μM: 2-hour incubation; for Papp B→A at 2 h, 10 μM: MDCK-MDR1, pH 7.4, basolateral-to-apical, pH7.4, read-out: MDCK-MDR1 Papp BA; for efflux ratio at 2 h, 10 μM: MDCK-MDR1, pH 7.4, efflux ratio Papp BA/Papp AB. On the procedure: Madin-Darby canine kidney (MDCKII) cells expressing either MDR1 or BCRP were seeded onto Corning HTS Transwell® 96-well polycarbonate permeable (0.4 μm pore) supports at a density of 545,000 cells/cm^2. Cells were incubated for 4-8 days prior to assay, and monolayer integrity was assessed by measuring transepithelial electrical resistance (TEER). […] The final organic solvent concentration was 0.5% (v/v). Bidirectional (apical-to-basolateral and basolateral-to-apical) flux of the test and reference compounds was determined over a 2-hour incubation at 37° C. and 5% CO2 with a relative humidity of 95%. At the end of the incubation, samples from the apical and basolateral side were taken and then precipitated with acetonitrile containing internal standard. After centrifugation at 3200×g, supernatants were diluted 1:1 (v/v) with water and subjected to analysis via HPLC-MS/MS.
Apparent permeability (Papp, ×10^−6 cm/s) was calculated for all transport assays using the following equation: […]
Efflux ratio was determined by calculating the ratio of the Papp in the basolateral-to-apical direction to the Papp in the apical-to-basolateral direction using the following equation: […]

The structures appear in SMILES notation.

MDR1, sequence (P08183 whole entry): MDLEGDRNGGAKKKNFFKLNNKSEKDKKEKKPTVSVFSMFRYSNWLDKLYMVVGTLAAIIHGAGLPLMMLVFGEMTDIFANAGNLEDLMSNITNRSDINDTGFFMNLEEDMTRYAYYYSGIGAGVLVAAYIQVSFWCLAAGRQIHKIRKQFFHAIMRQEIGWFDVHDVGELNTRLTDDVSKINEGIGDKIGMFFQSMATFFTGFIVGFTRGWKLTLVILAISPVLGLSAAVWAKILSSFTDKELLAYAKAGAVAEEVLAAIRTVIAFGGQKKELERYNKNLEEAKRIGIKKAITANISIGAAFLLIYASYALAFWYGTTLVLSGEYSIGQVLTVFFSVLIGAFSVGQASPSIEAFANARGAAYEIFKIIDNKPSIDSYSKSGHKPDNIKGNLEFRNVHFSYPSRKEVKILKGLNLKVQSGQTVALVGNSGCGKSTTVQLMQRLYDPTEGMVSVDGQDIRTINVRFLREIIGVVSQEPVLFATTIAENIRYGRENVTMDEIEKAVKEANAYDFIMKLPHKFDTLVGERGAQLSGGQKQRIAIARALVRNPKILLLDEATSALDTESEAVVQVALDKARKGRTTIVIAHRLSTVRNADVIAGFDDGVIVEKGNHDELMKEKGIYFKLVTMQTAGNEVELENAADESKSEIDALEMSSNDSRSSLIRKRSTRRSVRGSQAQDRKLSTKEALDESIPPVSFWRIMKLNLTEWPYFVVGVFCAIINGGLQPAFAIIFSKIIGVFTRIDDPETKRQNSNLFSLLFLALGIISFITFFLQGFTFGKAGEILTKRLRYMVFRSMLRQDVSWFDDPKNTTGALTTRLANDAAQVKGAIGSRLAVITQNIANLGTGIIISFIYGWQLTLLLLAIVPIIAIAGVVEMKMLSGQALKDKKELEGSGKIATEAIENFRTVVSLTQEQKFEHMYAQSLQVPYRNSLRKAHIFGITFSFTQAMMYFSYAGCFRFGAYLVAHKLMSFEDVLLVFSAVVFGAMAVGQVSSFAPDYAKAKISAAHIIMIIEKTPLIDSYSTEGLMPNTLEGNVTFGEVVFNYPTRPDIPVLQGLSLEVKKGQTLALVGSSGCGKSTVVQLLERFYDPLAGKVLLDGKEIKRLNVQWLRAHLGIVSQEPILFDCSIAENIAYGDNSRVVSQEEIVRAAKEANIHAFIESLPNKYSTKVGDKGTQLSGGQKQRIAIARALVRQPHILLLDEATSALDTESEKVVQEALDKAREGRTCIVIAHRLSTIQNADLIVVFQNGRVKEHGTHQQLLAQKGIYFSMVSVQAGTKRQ

In the case of `[2H]C1([2H])Cc2c(c3ccc(CN4CCN(c5ccc(C(=O)NC)nc5F)CC4)c(F)c3[nH]c2=O)O1` (single isomer, unassigned) [Example 31, 6-fluoro-5-(4-((6-fluoro-4-oxo-2,3,4,5-tetrahydrofuro[3,2-c]quinolin-7-yl-2,2-d2)methyl)piperazin-1-yl)-N-methylpicolinamide], the 50% effective concentration (EC50) was 7.7 nM in the data set with DLD-1 BRCA2(−/−) cells and 6.9 nM in data set [1].

Turning to `[2H]C1([2H])COc2c1c(=O)[nH]c1c(F)c(CN3CCN(c4ccc(C(=O)NC)nc4F)CC3)ccc21` (single isomer, unassigned) [Example 32, 6-fluoro-5-(4-((6-fluoro-4-oxo-2,3,4,5-tetrahydrofuro[3,2-c]quinolin-7-yl-3,3-d2)methyl)piperazin-1-yl)-N-methylpicolinamide], the values for the EC50 (in the data set with DLD-1 BRCA2(−/−) cells; in data set [1]) were 5.4 nM and 9.2 nM, respectively.

As for `CNC(=O)c1ccc(N2CCN(Cc3ccc4c5c(c(=O)[nH]c4c3F)CCC5)CC2)c(F)n1` [Comp. Ex. 4, reference compound], the EC50 in the data set with DLD-1 BRCA2(−/−) cells came to 1 nM; in data set [1] it was 1.1 nM. Besides, the Papp A→B at 2 h, 10 μM at MDR1 worked out at 16.3 ×10⁻⁶ cm/s. The Papp B→A at 2 h, 10 μM at MDR1 worked out at 20.6 ×10⁻⁶ cm/s.

Turning to `CNC(=O)c1ccc(N2CCN(Cc3ccc4c([nH]c(=O)c5ccnn54)c3F)CC2)cn1` [Example 2], the concentration for a half-maximal effect (EC50) in data set [1] is 68 nM.

Take `O=C(NC1CC1)c1ccc(N2CCN(Cc3ccc4c([nH]c(=O)c5ccnn54)c3F)CC2)c(F)n1` [Example 3]: the EC50 in the data set on DLD-1 BRCA2(−/−) cells worked out at 9.1 nM; in data set [1], 4.3 nM.

`Cc1cc2c(=O)[nH]c3c(F)c(CN4CCN(c5ccc(C(=O)NC6CC6)nc5F)CC4)ccc3n2n1` [Example 4] displayed an EC50 in the data set on DLD-1 BRCA2(−/−) cells of 2.1 nM. For the same compound, in data set [1], the response was half-maximal at 1.2 nM (EC50). At MDR1, the Papp A→B at 2 h, 10 μM amounted to 4.4 ×10⁻⁶ cm/s; the Papp B→A at 2 h, 10 μM was found to be 8.6 ×10⁻⁶ cm/s; the efflux ratio at 2 h, 10 μM was found to be 1.96.

In the data set on DLD-1 BRCA2(−/−) cells, `CNC(=O)c1ccc(N2CCN(Cc3ccc4c([nH]c(=O)c5cc(C)nn54)c3F)CC2)c(F)n1` [Example 5] returned an EC50 of 4.2 nM. Also, the EC50 in data set [1] was determined as 2.9 nM. Also, on MDR1, the Papp A→B at 2 h, 10 μM was 10.3 ×10⁻⁶ cm/s; the Papp B→A at 2 h, 10 μM came to 21.2 ×10⁻⁶ cm/s; the efflux ratio at 2 h, 10 μM is 2.06.

Take `CNC(=O)c1ccc(N2CCN(Cc3ccc4c([nH]c(=O)c5ccoc54)c3F)CC2)c(F)n1` [Example 6, 6-fluoro-5-[4-({6-fluoro-4-oxo-5H-furo[3,2-c]quinolin-7-yl}methyl)piperazin-1-yl]-N-methylpyridine-2-carboxamide]: the values for the EC50 (in the data set with DLD-1 BRCA2(−/−) cells; in data set [1]) were 3.8 nM and 2.1 nM, respectively.

`CNC(=O)c1ccc(N2CCN(Cc3ccc4c([nH]c(=O)n5cccc45)c3F)CC2)c(F)n1` [Example 7, 6-fluoro-5-[4-({7-fluoro-5-oxo-6H-pyrrolo[1,2-c]quinazolin-8-yl}methyl)piperazin-1-yl]-N-methylpyridine-2-carboxamide]: the figures for the EC50 (in the data set with DLD-1 BRCA2(−/−) cells; in data set [1]) were 2.1 nM and 1.3 nM, respectively.

For the compound `CNC(=O)c1ccc(N2CCN(Cc3ccc4c([nH]c(=O)c5c(Cl)cnn54)c3F)CC2)c(F)n1` [Example 8], the EC50 with DLD-1 BRCA2(−/−) cells was determined as 1.8 nM; in data set [1], 0.94 nM.

With `CNC(=O)c1ccc(N2CCN(Cc3ccc4c([nH]c(=O)c5cccn54)c3F)CC2)c(F)n1` [Example 10, 6-fluoro-5-[4-({6-fluoro-4-oxo-5H-pyrrolo[1,2-a]quinoxalin-7-yl}methyl)piperazin-1-yl]-N-methylpyridine-2-carboxamide], the EC50 stood at 0.64 nM in the data set on DLD-1 BRCA2(−/−) cells and 0.3 nM in data set [1].

Consider `O=C(NCC(F)F)c1ccc(N2CCN(Cc3ccc4c([nH]c(=O)c5ccoc54)c3F)CC2)c(F)n1` [Example 11], for which the EC50 with DLD-1 BRCA2(−/−) cells was found to be 1.1 nM; in data set [1], 0.86 nM.

Regarding `O=C(NCC(F)F)c1ccc(N2CCN(Cc3ccc4c([nH]c(=O)c5ccnn54)c3F)CC2)c(F)n1` [Example 12], the results for the EC50 (in the data set on DLD-1 BRCA2(−/−) cells; in data set [1]) were 1.6 nM and 0.9 nM, respectively.

In the case of `Cc1cc2c(=O)[nH]c3c(F)c(CN4CCN(c5ccc(C(=O)NCC(F)F)nc5F)CC4)ccc3n2n1` [Example 13], the EC50 came to 1.4 nM in the data set on DLD-1 BRCA2(−/−) cells and 1.2 nM in data set [1].

With `O=C(NC1CC1)c1ccc(N2CCN(Cc3ccc4c([nH]c(=O)c5ccoc54)c3F)CC2)c(F)n1` [Example 14], the figures for the EC50 (in the data set on DLD-1 BRCA2(−/−) cells; in data set [1]) were 1.2 nM and 0.68 nM, respectively.

For `O=C(NCC(F)F)c1ccc(N2CCN(Cc3ccc4c5c(c(=O)[nH]c4c3F)CCO5)CC2)c(F)n1` [Example 15], the EC50 in the data set on DLD-1 BRCA2(−/−) cells is 1.9 nM; in data set [1] it was 0.75 nM.

On to `O=C(NC1CC1)c1ccc(N2CCN(Cc3ccc4c5c(c(=O)[nH]c4c3F)CCO5)CC2)c(F)n1` [Example 16], for which the EC50 with DLD-1 BRCA2(−/−) cells is 5.1 nM; in data set [1] it was 3.1 nM.

On to `COCCNC(=O)c1ccc(N2CCN(Cc3ccc4c([nH]c(=O)c5cc(C)nn54)c3F)CC2)c(F)n1` [Example 17], for which the values for the EC50 (in the data set on DLD-1 BRCA2(−/−) cells; in data set [1]) were 1.5 nM and 1.3 nM, respectively.

`CNC(=O)c1ccc(N2CCN(Cc3ccc4c([nH]c(=O)c5cnn(C)c54)c3F)CC2)c(F)n1` [Example 19, 6-fluoro-5-[4-({6-fluoro-1-methyl-4-oxo-5H-pyrazolo[4,3-c]quinolin-7-yl}methyl)piperazin-1-yl]-N-methylpyridine-2-carboxamide]: the EC50 in the data set with DLD-1 BRCA2(−/−) cells stood at 57 nM; in data set [1], 31 nM.

On to `CNC(=O)c1ccc(N2CCN(Cc3ccc4c([nH]c(=O)c5cn(C)nc54)c3F)CC2)c(F)n1` [Example 20, 6-fluoro-5-[4-({6-fluoro-2-methyl-4-oxo-5H-pyrazolo[4,3-c]quinolin-7-yl}methyl)piperazin-1-yl]-N-methylpyridine-2-carboxamide], for which the EC50 came to 6.2 nM with DLD-1 BRCA2(−/−) cells and 4 nM in data set [1].

Consider `Cc1cc2c(=O)[nH]c3c(F)c(CN4CCN(c5ccc(C(=O)NC6COC6)nc5F)CC4)ccc3n2n1` [Example 21], for which the EC50 is 1.3 nM with DLD-1 BRCA2(−/−) cells and 0.66 nM in data set [1].

On to `CNC(=O)c1ccc(N2CCN(Cc3ccc4c([nH]c(=O)c5c(C)cnn54)c3F)CC2)c(F)n1` [Example 23], for which the figures for the EC50 (in the data set with DLD-1 BRCA2(−/−) cells; in data set [1]) were 4.7 nM and 2.7 nM, respectively.

In the case of `CNC(=O)c1ccc(N2CCN(Cc3ccc4c([nH]c(=O)c5cc(F)nn54)c3F)CC2)c(F)n1` [Example 25, 5-[4-({2,6-difluoro-4-oxo-5H-pyrazolo[1,5-a]quinoxalin-7-yl}methyl)piperazin-1-yl]-6-fluoro-N-methylpyridine-2-carboxamide], the EC50 came to 1.8 nM in the data set with DLD-1 BRCA2(−/−) cells and 1.4 nM in data set [1].

For the compound `CNC(=O)c1ccc(N2CCN(Cc3ccc4c5c(c(=O)[nH]c4c3F)CCO5)CC2)cn1` [Example 26], the EC50 was 7.5 nM in the data set with DLD-1 BRCA2(−/−) cells and 6 nM in data set [1].

Take `CNC(=O)c1nc(C)c(N2CCN(Cc3ccc4c5c(c(=O)[nH]c4c3F)CCO5)CC2)cc1F` [Example 27]: the EC50 in the data set with DLD-1 BRCA2(−/−) cells was 21 nM; in data set [1] it was 14 nM.

Turning to `CNC(=O)c1ccc(N2CCN(Cc3ccc4c([nH]c(=O)c5c(F)cnn54)c3F)CC2)c(F)n1` [Example 28, 5-[4-({3,6-difluoro-4-oxo-5H-pyrazolo[1,5-a]quinoxalin-7-yl}methyl)piperazin-1-yl]-6-fluoro-N-methylpyridine-2-carboxamide], the EC50 in the data set with DLD-1 BRCA2(−/−) cells was 0.84 nM; in data set [1], 0.57 nM.

Turning to `CNC(=O)c1ccc(N2CCN(Cc3ccc4c5c(c(=O)[nH]c4c3F)CCO5)CC2)c(C)n1` [Example 29], the EC50 with DLD-1 BRCA2(−/−) cells amounted to 4.3 nM; in data set [1] it was 2.1 nM.

The term EC50 denotes the concentration giving half of the maximal effect. A word on the efflux ratio: it is a quotient of directional permeabilities that is used to spot active efflux.

The record behind these values is patent US11795173B1, “Substituted pyridines as PARP1 inhibitors” (Xinthera, Inc., priority 2022, dated 2023).
